Reference: US20240010680A1, “PEPTIDE DISINFECTANT FOR PREVENTING CORONAVIRUSES” (Xiamen University, priority 2021, published 2024)
Where no end group is shown, it is not given here.

Target: hACE2 (Homo sapiens, UniProt Q9BYF1)
Test: Biacore T200 molecular binding (affinity analysis) of peptides on a CM5-hACE2 chip
Description: Embodiment 1: Testing a Binding Capacity Between Peptide1 & Peptide2 and Derivatives Thereof and hACE2 Based on a Biacore Molecular Binding System (e.g., GE Biacore T200)
Apparatus: GE Biacore T200.
Materials and reagents: Series S Sensor Chip CM5 (GE Life100530), hACE2 purified protein, Peptide1 & Peptide2 and their derivatives (See Table 1), Amine Coupling Kit (GELife100050, Phosphate-buffered saline (PBS), glycine-hydrochloric acid buffer solution (pH 2.5)).
(1) Preparing a Capture Surface and a Binding Experiment
Materials: 1-(3-Dimethylaminopropyl)-3-ethylcarbodiimide hydrochloride (EDC), N-Hydroxysuccinimide (NHS), ethanolamine (an amine coupling kit), PBS, hACE2, Series S Sensor Chip CM5.
Specific Steps: • a. The GE Biacore T200 is started, the Series S Sensor Chip CM5 is embedded into the GE Biacore T200, the PBS is degassed to obtain a degassed PBS, and the degassed PBS is used throughout the experiment; • b. The NHS, the EDC, the ethanolamine, and the hACE2 (1 mg/mL) are placed on a feeding plate of the GE Biacore T200 according to volumes indicated by the GE Biacore T200 using Eppendorf (EP) tubes in sufficient quantities; • c. A sample is injected at a flow rate of 5 μL/min, an activation of the Series S Sensor Chip CM5, amine coupling of the hACE2, and saturating an activated carboxyl group that is uncoupled with the hACE2 using the ethanolamine are sequentially performed to obtain an RUs value of the hACE2, and the RUs value is 14826.0; • d. A mobile solution (the degassed PBS) is closed, a command window is closed, and a report is served to obtain a CM5-hACE2 chip;
(2) Affinity analysis of peptides with hACE from Table 1
Materials: the PBS, the CM5-hACE2 chip, the peptides in the Table 1, and the glycine-hydrochloric acid buffer solution (pH 2.5).
Specific Steps: • a. Preparing different dilutions as samples for testing: the peptides in Table 1 to be tested at a concentration of 3 mmol/L (mM) are dissolved and sequentially diluted into different dilutions of 100 μmol/L (μM), 60 μM, 30 μM, 10 μM, 3 μM, 1 μM, 0.3 μM, and 0 using the PBS to obtain the samples. Each of the different dilutions is ensured to have a volume of no less than 400 μL and separately packaged on EP tubes. The samples are placed on a test plate of the GE Biacore T200, and the test plate is stuck in a test slot; • b. […]

hACE2, sequence (Q9BYF1 18-805): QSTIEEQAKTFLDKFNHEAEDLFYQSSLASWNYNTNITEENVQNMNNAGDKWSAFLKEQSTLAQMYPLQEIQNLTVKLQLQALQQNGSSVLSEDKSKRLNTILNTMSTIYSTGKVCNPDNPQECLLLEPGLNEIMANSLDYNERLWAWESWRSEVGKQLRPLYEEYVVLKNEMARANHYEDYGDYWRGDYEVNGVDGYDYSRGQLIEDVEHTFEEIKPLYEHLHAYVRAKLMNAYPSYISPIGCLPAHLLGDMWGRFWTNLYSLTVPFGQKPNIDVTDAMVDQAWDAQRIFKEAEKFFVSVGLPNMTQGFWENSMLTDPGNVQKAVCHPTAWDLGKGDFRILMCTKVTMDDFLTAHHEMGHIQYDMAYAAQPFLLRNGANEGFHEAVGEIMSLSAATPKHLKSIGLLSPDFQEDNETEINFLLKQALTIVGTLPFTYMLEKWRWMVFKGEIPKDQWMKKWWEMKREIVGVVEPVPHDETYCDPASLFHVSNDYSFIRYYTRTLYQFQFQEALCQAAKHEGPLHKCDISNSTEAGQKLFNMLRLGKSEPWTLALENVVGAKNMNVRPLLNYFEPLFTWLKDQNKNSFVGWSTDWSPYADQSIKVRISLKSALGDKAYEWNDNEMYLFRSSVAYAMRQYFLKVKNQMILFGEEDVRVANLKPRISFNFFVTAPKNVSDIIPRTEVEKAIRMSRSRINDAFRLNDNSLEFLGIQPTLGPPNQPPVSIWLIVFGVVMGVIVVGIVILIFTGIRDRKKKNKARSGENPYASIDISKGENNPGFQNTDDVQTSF

Substance | Kd [µM]
YKYRYL [Peptide1, YKYRYL] | 50.6
YRYKYL [Peptide11, YRYKYL] | 60.7
YSYINK [Peptide2, YSYINK] | 95
YTYINK [Peptide22, YTYINK] | 58.4
